In patent US20140243286A1, “BROMODOMAIN LIGANDS CAPABLE OF DIMERIZING IN AN AQUEOUS SOLUTION, AND METHODS OF USING SAME” (Coferon, Inc., priority 2011, published 2014) one finds IC50 data, which are given here for eight compounds.

One assay concerns the target BRD2 (Homo sapiens, UniProt P25440). Description: Fluorescence anisotropy (FA) binding assay, BRD2. The method, then: (§1) Fluorescence Anisotropy (FA) Binding Assays.
(§2) FA assays were performed as described in Chung et al., J. Med Chem., 2011 54(11): 3827-38 except that protein concentrations were 125 nM and plates were read on a Spectramax M5 plate reader.
(In general: Polarisation of emitted light reports the rotation of a fluorescent probe.)

A further assay deals with BRD3 (Homo sapiens, UniProt Q15059). Description: Fluorescence anisotropy (FA) binding assay, BRD3. The procedure:
as §1, §2

The target in the next assay is BRD4 (Homo sapiens, UniProt O60885). Description: Fluorescence anisotropy (FA) binding assay, BRD4. The procedure:
as §1, §2

Where [1] appears, read: BRD2, protein 125 nM, read-out: IC50 range (FA assay) BRD2, BRD-E monomers.
[2] abbreviates: BRD3, protein 125 nM, read-out: IC50 range (FA assay) BRD3, BRD-E monomers.
[3] abbreviates: BRD4, protein 125 nM, read-out: IC50 range (FA assay) BRD4, BRD-E monomers.

Read-outs that look alike come from different tables or passages of the source.

BRD3, sequence (Q15059 whole entry): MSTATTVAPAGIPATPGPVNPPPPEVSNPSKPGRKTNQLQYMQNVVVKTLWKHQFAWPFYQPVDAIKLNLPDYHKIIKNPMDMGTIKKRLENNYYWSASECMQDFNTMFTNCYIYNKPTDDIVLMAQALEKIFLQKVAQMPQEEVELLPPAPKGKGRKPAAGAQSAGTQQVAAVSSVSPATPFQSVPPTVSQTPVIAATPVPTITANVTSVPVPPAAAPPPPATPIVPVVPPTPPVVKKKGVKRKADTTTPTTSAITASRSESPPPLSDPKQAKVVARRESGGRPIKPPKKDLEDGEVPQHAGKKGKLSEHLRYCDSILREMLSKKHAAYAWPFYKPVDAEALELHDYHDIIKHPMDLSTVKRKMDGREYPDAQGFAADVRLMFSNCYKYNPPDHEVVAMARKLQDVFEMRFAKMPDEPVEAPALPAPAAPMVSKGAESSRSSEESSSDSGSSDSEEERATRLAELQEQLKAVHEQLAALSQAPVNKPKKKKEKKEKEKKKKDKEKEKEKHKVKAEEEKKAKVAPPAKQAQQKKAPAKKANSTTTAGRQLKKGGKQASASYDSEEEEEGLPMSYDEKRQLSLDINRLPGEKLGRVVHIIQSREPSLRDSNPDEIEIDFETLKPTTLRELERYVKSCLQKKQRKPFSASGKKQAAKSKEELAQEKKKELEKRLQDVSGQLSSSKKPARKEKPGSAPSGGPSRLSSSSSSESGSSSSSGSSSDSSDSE
BRD2, sequence (P25440 whole entry): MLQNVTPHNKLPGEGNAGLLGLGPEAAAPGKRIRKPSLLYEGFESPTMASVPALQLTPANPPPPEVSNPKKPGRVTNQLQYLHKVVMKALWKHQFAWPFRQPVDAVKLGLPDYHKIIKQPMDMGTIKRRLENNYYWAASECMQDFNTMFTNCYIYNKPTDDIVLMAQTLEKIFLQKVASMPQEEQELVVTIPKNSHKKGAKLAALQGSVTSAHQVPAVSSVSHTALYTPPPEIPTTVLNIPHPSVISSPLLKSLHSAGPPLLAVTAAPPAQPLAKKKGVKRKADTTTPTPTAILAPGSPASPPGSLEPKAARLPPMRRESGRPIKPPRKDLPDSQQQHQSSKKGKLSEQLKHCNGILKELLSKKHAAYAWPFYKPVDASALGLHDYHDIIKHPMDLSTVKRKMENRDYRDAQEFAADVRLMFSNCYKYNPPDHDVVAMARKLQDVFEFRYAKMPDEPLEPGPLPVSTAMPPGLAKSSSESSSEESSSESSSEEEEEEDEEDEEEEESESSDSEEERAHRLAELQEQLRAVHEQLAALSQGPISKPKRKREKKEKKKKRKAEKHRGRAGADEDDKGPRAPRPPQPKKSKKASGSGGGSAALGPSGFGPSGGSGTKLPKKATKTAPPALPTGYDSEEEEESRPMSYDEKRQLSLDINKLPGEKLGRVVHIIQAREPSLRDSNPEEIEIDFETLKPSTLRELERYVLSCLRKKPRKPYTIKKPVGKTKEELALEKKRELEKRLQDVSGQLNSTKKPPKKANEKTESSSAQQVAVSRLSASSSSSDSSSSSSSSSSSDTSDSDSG

As to `COc1ccc2c(c1)C(c1ccc(Cl)cc1)=N[C@@H](CC(=O)NCCNC(=O)c1ccc(B(O)O)cc1)c1nnc(C)n1-2` [BRD-E-01, (4-((2-(2-((4S)-6-(4-chlorophenyl)-8-methoxy-1-methyl-4H-benzo[f][1,2,4]triazolo[4,3-a][1,4]diazepin-4-yl)acetamido)ethyl)carbamoyl)phenyl)boronic acid], the IC50 on BRD2, on BRD3 and on BRD4 was 50 to 1000 nM in each case.

On to `COc1ccc2c(c1)C(c1ccc(Cl)cc1)=N[C@@H](CC(=O)NCCNC(=O)c1cccc(B(O)O)c1)c1nnc(C)n1-2` [BRD-E-02, (3-((2-(2-((4S)-6-(4-chlorophenyl)-8-methoxy-1-methyl-4H-benzo[f][1,2,4]triazolo[4,3-a][1,4]diazepin-4-yl)acetamido)ethyl)carbamoyl)phenyl)boronic acid], for which the IC50 on BRD2, at BRD3 and at BRD4 was 50 to 1000 nM each time.

As to `COc1ccc2c(c1)C(c1ccc(Cl)cc1)=N[C@@H](CC(=O)NCCCNC(=O)c1ccc(B(O)O)cc1)c1nnc(C)n1-2` [BRD-E-03, (4-((3-(2-((4S)-6-(4-chlorophenyl)-8-methoxy-1-methyl-4H-benzo[f][1,2,4]triazolo[4,3-a][1,4]diazepin-4-yl)acetamido)propyl)carbamoyl)phenyl)-boronic acid], the IC50 on BRD2 (setting [1]), on BRD3 (setting [2]) and on BRD4 (setting [3]) was 50 to 1000 nM each time.

For `COc1ccc2c(c1)C(c1ccc(Cl)cc1)=N[C@@H](CC(=O)NCCCNC(=O)c1cccc(B(O)O)c1)c1nnc(C)n1-2` [BRD-E-04, (3-((3-(2-((4S)-6-(4-chlorophenyl)-8-methoxy-1-methyl-4H-benzo[f][1,2,4]triazolo[4,3-a][1,4]diazepin-4-yl)acetamido)propyl)carbamoyl)phenyl)-boronic acid], the IC50 on BRD2 (setting [1]), on BRD3 (setting [2]) and on BRD4 (setting [3]) was 50 to 1000 nM each time.

As for `COc1ccc2c(c1)C(c1ccc(Cl)cc1)=N[C@@H](CC(=O)NCCCCNC(=O)c1ccc(B(O)O)cc1)c1nnc(C)n1-2` [BRD-E-05, (4-((4-(2-((4S)-6-(4-chlorophenyl)-8-methoxy-1-methyl-4H-benzo[f][1,2,4]triazolo[4,3-a][1,4]diazepin-4-yl)acetamido)butyl)carbamoyl)phenyl)boronic acid], the IC50 on BRD2 (setting [1]), at BRD3 (setting [2]) and at BRD4 (setting [3]) was 50 to 1000 nM throughout.

For the compound `COc1ccc2c(c1)C(c1ccc(Cl)cc1)=N[C@@H](CC(=O)NCCCCNC(=O)c1cccc(B(O)O)c1)c1nnc(C)n1-2` [BRD-E-06, (3-((4-(2-((4S)-6-(4-chlorophenyl)-8-methoxy-1-methyl-4H-benzo[f][1,2,4]triazolo[4,3-a][1,4]diazepin-4-yl)acetamido)butyl)carbamoyl)phenyl)boronic acid], the IC50 at BRD2 (setting [1]), at BRD3 (setting [2]) and at BRD4 (setting [3]) was 50 to 1000 nM in each case.

In the case of `COc1ccc2c(c1)C(c1ccc(Cl)cc1)=N[C@@H](CC(=O)NCCCCCNC(=O)c1ccc(B(O)O)cc1)c1nnc(C)n1-2` [BRD-E-07, (4-((5-(2-((4S)-6-(4-chlorophenyl)-8-methoxy-1-methyl-4H-benzo[f][1,2,4]triazolo[4,3-a][1,4]diazepin-4-yl)acetamido)pentyl)carbamoyl)phenyl)-boronic acid], the 50% inhibitory concentration (IC50) on BRD2, at BRD3 and on BRD4 was 50 to 1000 nM each time.

For the compound `COc1ccc2c(c1)C(c1ccc(Cl)cc1)=N[C@@H](CC(=O)NCCNC(=O)Cc1ccc(B(O)O)cc1)c1nnc(C)n1-2` [BRD-E-27, (4-(2-((2-(2-((4S)-6-(4-chlorophenyl)-8-methoxy-1-methyl-4H-benzo[f][1,2,4]triazolo[4,3-a][1,4]diazepin-4-yl)acetamido)ethyl)amino)-2-oxoethyl)phenyl)boronic acid], the half-maximal inhibitory concentration (IC50) on BRD2 (setting [1]) and on BRD4 (setting [3]) was 1000 to 30000 nM each time.
